Literature values as cited in EP0496617B1, “Adenosine kinase inhibitors” (priority 1991, dated 1992).

Tests used:
rat cardiomyocytes = conditions: inhibition of ADA together with adenosine kinase; cited from earlier work
[1] = tested on: Isolated guinea pig hearts; conditions: added to the perfusion medium in the presence of EHNA; cited from earlier work
rat brain slices = conditions: cited from earlier work
guinea pig brain slices = conditions: cited from earlier work
dog hearts = conditions: cited from earlier work
isolated rat hearts = conditions: perfused with the compound alone; normoxic, hypoxic, anoxic or ischemic conditions; cited from earlier work
mice = conditions: cited from earlier work
anesthetized rats = conditions: cited from earlier work

## NC[C@H]1O[C@@H](n2cnc3c(N)ncnc32)[C@H](O)[C@@H]1O [GP-1-238, 5'-amino-5'-deoxyadenosine]
Rat cardiomyocytes
  increase in adenosine release: 6 fold
[1]
  increase of adenosine release: 15 fold

## Nc1ncnc2c1c(I)cn2[C@@H]1O[C@H](CO)[C@@H](O)[C@H]1O [5-iodotubercidin, reference compound]
Rat brain slices
  adenosine uptake: inhibited
Guinea pig brain slices
  adenosine uptake: inhibited
Dog hearts
  effects in ischemia and reperfusion: inconsistent effects
Isolated rat hearts
  perfusate adenosine concentration: no increase in perfusate adenosine concentration
mice
  body temperature: hypothermia
  flaccidity and spontaneous locomotor activity: pronounced general flaccidity and much-reduced spontaneous locomotor activity
Anesthetized rats
  blood pressure and heart rate: decrease blood pressure and heart rate
